pIC50: −log10 of the molar value. Activity calls are given as the source filed them. The calls are words filed in the database; no cut-off is given here.
What was measured:
[1] = system: MDA-MB-231; assay: Cytotoxicity against human MDA-MB-231 cells after 72 hrs by resazurin based fluorescence assay; format: functional, cell-based
[2] = system: A549; assay: Cytotoxicity against human A549 cells after 72 hrs by resazurin based fluorescence assay; format: functional, cell-based
[3] = system: HeLa; assay: Cytotoxicity against human HeLa cells after 72 hrs by resazurin based fluorescence assay; format: functional, cell-based
[4] = system: HeLa; assay: Antimicrotubule activity in human HeLa cells assessed as reduction of interphase microtubule network at 1 uM after 24 hrs by indirect immunofluorescence technique; format: functional, cell-based
[5] = system: MDA-MB-231; assay: Antimicrotubule activity in human MDA-MB-231 cells assessed as reduction of interphase microtubule network at 1 uM after 24 hrs by indirect immunofluorescence technique; format: functional, cell-based
[6] = molecular target: T1, Tubulin (Bos taurus) (UniProt Q6B856+Q862L2+Q862F3); assay: Inhibition of bovine brain tubulin polymerization at 1 uM after 60 mins by spectrophotometric analysis
[7] = molecular target: T1, Tubulin (Bos taurus); assay: Induction of bovine brain tubulin polymerization at 1 uM after 60 mins by spectrophotometric analysis
[8] = molecular target: T1, Tubulin (Bos taurus); assay: Inhibition of bovine brain tubulin polymerization at 10 uM after 60 mins by spectrophotometric analysis
[9] = system: Chorioallantoic membrane; assay: Antiangiogenic activity in chicken embryo chorioallantoic membrane model assessed as inhibition of bFGF/VEGF-induced new vessel growth; format: functional, tissue-based; settings: Gallus gallus
[10] = system: HeLa; assay: Cell cycle arrest in human HeLa cells assessed as accumulation at G0/G1 phase at 1 uM after 24 hrs using propidium iodide staining by flow cytometry (reference value: 61.60%); format: functional
[11] = Plasma concentration in C57BL/6 mouse at 5 mg/kg, po after 1 hr; format: ADME, organism-based; parameters: dose 5 mg/kg, route oral
[12] = Plasma concentration in C57BL/6 mouse at 5 mg/kg, po after 3 hrs; format: ADME, organism-based; parameters: dose 5 mg/kg, route oral
[13] = molecular target: Tubulin (Homo sapiens) (UniProt P68371+Q9H4B7+P0DPH7+P68366+Q13509+Q71U36+P04350+Q3ZCM7+P07437+P68363+Q9BQE3+Q6PEY2+Q13885+Q9BVA1+Q9BUF5); assay: Displacement of colchicine from tubulin (unknown origin) at 0.1 to 125 uM after 1 hr by HPLC-MS/MS analysis; format: protein-complex assay

Structure (SMILES)	pIC50 ([1]; Homo sapiens, MDA-MB-231, 72 h)	pIC50 ([2]; Homo sapiens, A549, 72 h)	pIC50 ([3]; Homo sapiens, HeLa, 72 h)	other results
COc1ccc(-c2cccc(Br)n2)cc1OC	< 4.60	< 4.60	< 4.30	
COc1cc(-c2cccc(Br)n2)cc(OC)c1OC	5.22	5.05	4.92	
COc1ccc(-c2cccc(-c3ccccc3OC)n2)c(OC)c1	< 4.60	< 4.30	< 4.60	
COc1ccc(-c2cccc(-c3ccc(OC)c(OC)c3)n2)cc1OC	< 4.30	< 4.30	< 4.60	
COc1ccc(-c2ccc(-c3ccc(OC)cc3OC)nc2)c(OC)c1	< 4.00	< 4.00	< 4.30	
COc1ccc(-c2cccc(Br)n2)c(OC)c1	< 4.00	< 4.30	< 4.30	
COc1ccc(-c2cccc(-c3ccc(O)cc3)n2)cc1	< 4.60	< 4.60	< 4.30	
COc1ccc(-c2cccc(-c3ccc(OC)cc3OC)n2)c(OC)c1	7.12	7.10	7.96	
COc1ccc(-c2cccc(-c3ccc(O)cc3)n2)cc1OC	< 4.30	< 4.00	6.07	
COc1ccc(-c2cccc(-c3ccc(OC)cc3OC)n2)cc1	8.51	7.05	8.42	Activity [4]: Active; Activity [5]: Active; inhibition [6]: inactive; Activity [7]: Active; inhibition [8]: inactive; growth inhibition (GI) [9]: Active
COc1cccc(-c2cccc(-c3ccc(OC)cc3OC)n2)c1	5.04	6.25	7.17	
COc1ccc(-c2cccc(-c3c(OC)cc(OC)cc3OC)n2)c(OC)c1	< 4.30	< 4.30	< 4.60	
COc1ccc(-c2cccc(-c3cc(OC)c(OC)c(OC)c3)n2)cc1	< 4.60	< 4.30	< 4.30	
COc1ccc(-c2cccc(-c3c(OC)cccc3OC)n2)c(OC)c1	< 4.00	< 4.00	< 4.30	
COc1ccc(-c2cccc(-c3ccc(OC)c(OC)c3)n2)cc1	< 4.60	< 4.60	< 4.60	
COc1cc(-c2ccnc(-c3cc(OC)c(OC)c(OC)c3)c2)cc(OC)c1OC	5.58	5.10	6.10	
COc1cc(-c2cccc(-c3cc(OC)c(OC)c(OC)c3)n2)cc(OC)c1OC	4.96	< 4.30	6.00	

Structure (SMILES)	pIC50 ([1]; Homo sapiens, MDA-MB-231, 72 h)	pIC50 ([2]; Homo sapiens, A549, 72 h)	pIC50 ([3]; Homo sapiens, HeLa, 72 h)	other results
COc1ccc(-c2cccc(-c3cccc(OC)c3OC)n2)c(OC)c1	< 4.30	< 4.30	< 4.30	
COc1ccc(-c2cccc(-c3ccc(OC)c(OC)c3)n2)c(OC)c1	4.89	< 4.60	< 4.30	
COc1ccc(-c2ccnc(-c3ccc(OC)cc3OC)c2)c(OC)c1	< 4.30	< 4.30	< 4.60	
COc1ccc(/C=C\c2cc(OC)c(OC)c(OC)c2)cc1O [COMBRETASTATIN A4]	8.55	8.42	9.05	Activity [4]: Active; Activity [5]: Active; Activity [10]: 37%; inhibition [6]: 35%; inhibition [8]: Active; growth inhibition (GI) [9]: Active; concentration at 1 h [11]: 2.3 ng/mL; concentration at 3 h [12]: 2.1 ng/mL
COc1ccc(-c2ccc(-c3cc(OC)c(OC)c(OC)c3)nc2)cc1OC	< 4.30	< 4.30	< 4.60	
COc1cc(-c2cccc(-c3ccc(O)cc3)n2)cc(OC)c1OC	5.00	< 4.60	5.10	
COc1ccc(-c2cccc(-c3cc(OC)c(OC)c(OC)c3)n2)cc1OC	5.60	< 4.30	7.59	
COc1cc(OC)cc(-c2cccc(-c3ccc(OC)cc3OC)n2)c1	< 4.60	< 4.60	< 4.30	
COc1ccc(-c2cccc(-c3ccc(OC)c(O)c3)n2)c(OC)c1 [listing 1 of 3 here]				pIC50 ([1]; mda-mb-231): 8.27; pIC50 ([2]; a549): 7.38; pIC50 ([3]; hela): 8.59
COc1ccc(-c2cccc(-c3ccc(O)cc3)n2)c(OC)c1	4.76	5.37	< 4.00	
COc1ccc(-c2cccc(Br)n2)cc1	5.00	5.70	5.70	
COc1ccc(-c2cccc(-c3ccc(OC)cc3)n2)cc1	5.05	< 4.00	5.70	
COc1cc(-c2ccc(-c3cc(OC)c(OC)c(OC)c3)nc2)cc(OC)c1OC	4.96	< 4.00	5.57	
COc1cc(-c2ccc(Br)cn2)cc(OC)c1OC	4.92	< 4.60	4.85	
COc1ccc(-c2cccc(-c3ccc(OC)c(O)c3)n2)c(OC)c1 [listing 2 of 3 here]				inhibition [6]: inactive; inhibition [8]: 57%; growth inhibition (GI) [9]: Active; inhibition [13]: Active
COc1ccc(-c2cccc(-c3ccc(OC)c(O)c3)n2)c(OC)c1 [listing 3 of 3 here]	8.34	7.36	8.85	concentration at 1 h [11]: 9.2 ng/mL
